In US5219884A, “Immunosuppressant” (Taito Co., Ltd., priority 1990, dated 1993):
Like-named read-outs stand apart in the source and are kept apart here.

Assays:
[1] = system: mouse L929 cells; assay: cytotoxicity to mouse L929 cells; type: cell-based; conditions: 550 nm
Description: (§1) Cytotoxicity to mouse L929 cells was assayed as follows:
(§2) L929 cells were suspended to the concentration of 1.5×10^5 cells/ml in the F12 culture medium supplemented with 10% FCS. One hundred μl of the suspension was added to each well of 96-well microculture plates, and cultured at 37° C. in an atmosphere of 5% carbon dioxide for 24 hours, to which 100 μl of the test solution was added and cultured for further 48 hours. After the culture, 100 μl of the supernatant was removed and the absorbancy at 550 nm was measured in the same way as the colormetry using MTT in Experimental Example 1. The percent suppression was calculated by the following formula used as the index of cytotoxicity. [formula]

[2] = cytotoxicity to mouse L929 cells; type: cell-based; conditions: mouse, l929 cells, read-out: Suppression
Description: as §1, §2

[3] = system: mouse allogenic mixed lymphocyte reaction (BALB/c responder, C57BL/6 stimulator spleen cells); assay: mouse allogenic mixed lymphocyte reaction (MLR), blastogenesis by 3H-thymidine uptake; type: cell-based
Description: The immunosuppressive activity of the compounds (I) and their lactones was assayed by using mouse allogenic mixed lymphocyte reaction (hereinafter sometimes abbreviated as MLR). Mouse allogenic MLR was carried out by mixed culture of the BALB/c mouse (H-2^d) spleen cells as the responder cells and the mitomycin C-treated C57BL/6 (H-2^b) spleen cells as the stimulator cells in equal amounts.
The responder cells were prepared as follows: The spleen was resected from 5- to 6-week-old male BALB/c mice, and single cell suspension of spleen cells was prepared by using the RPMI1640 culture medium (containing 60 μg/ml of kanamycin sulfate, 2 mM of L-glutamine, 10 mM of N-2-hydroxyethylpiperazine-N'-2-ethanesulfonate (HEPES) and 0.1% sodium hydrogencarbonate) to which heat-inactivated fetal calf serum (hereinaftersometimes abbreviated as FCS) had been added to 5%. After hemolytic treatment, the cell suspension was adjusted to a concentration of 10^7 cells/ml by using the RPMI1640 culture medium supplemented with 10^-4 M 2-mercaptoethanol and 20% FCS, and was used as the responder cell suspension.
The stimulator cells were prepared as follows:
The spleen was resected from 5- to 6-week-old male C57BL/6 mice, and single cell suspension of spleen cells was prepared by using the RPMI1640 culture medium. After hemolytic treatment, the cells were treated with 40 μg/ml of mitomycin C at 37° C. for 60 minutes. After washing three times, the concentration of the cell suspension was adjusted to 10^7 cells/ ml by using the RPMI1640 culture medium supplemented with 10^-4 M 2-mercaptoethanol and 20% FCS, and was used as the stimulator cell suspension.
Fifty μl of the responder cell suspension, 50μl of the stimulator cell suspension prepared by the above method, and 100 μl of the test substance were placed in 96-well microculture plates, and were cultured at 37° C. in an atmosphere of 5% carbon dioxide for 4 days.
The blastogenesis of lymphocytes was assayed by a method of ^3 H-thymidine uptake as an index. That is, after termination of the culture, 0.5 μCi/well of ^3 H-thymidine was added and cultured for 4 hours. Cells were harvested by a cell-harvester, and the radioactivity incorporated into the cells was determined by a liquid scintillation counter to obtain the index of blastogenesis of lymphocytes in the mouse allogenic MLR. The suppression of the mouse allogenic MLR was evaluated by calculating the percent suppression by the following formula. [formula]
The test substance was dissolved in methanol or suspended in a mixture of methanol and acetic acid, and then diluted with the RPMI1640 culture medium.

[4] = system: MOLT4; assay: cytotoxicity to tumor cell line MOLT4; type: cell-based, human
Description: (§3) Cytotoxicity to human tumor cell lines was examined as follows:
(§4) Cells of human cell lines, K562, MOLT4, U937, HL60, KATOIII, KB, PC-6, PC-14 and CCRF-CEM were separately suspended to the concentration of 2×10^5 cells/ml in the RPMI1640 culture medium supplemented with 20% FCS. Fifty μl of this suspension was added to each well of 96-well microculture plates to which 50 μl of the test solution had been added. After culturing at 37° C. in an atmosphere of 5% carbon dioxide for 72 hours, the absorbancy at 550 nm was measured in the same way as the colorimetry using MTT in Experimental Example 1, and the percent suppression was calculated in the same manner as in Experimental Example 14, which was used as the index of cytotoxicity.

[5] = cytotoxicity to tumor cell line MOLT4; type: cell-based, human; conditions: human, molt4 cells, read-out: Suppression
Description: as §3, §4

[6] = system: PC-14; assay: in vitro; type: cell-based, human
Description: as §3, §4

[7] = system: KB; assay: in vitro; type: cell-based, human
Description: as §3, §4

[8] = system: U937; assay: in vitro; type: cell-based, human
Description: as §3, §4

[9] = system: CCRF-CEM; assay: in vitro; type: cell-based, human
Description: as §3, §4

[10] = in vitro; type: cell-based, human; conditions: human, read-out: Suppression
Description: as §3, §4

[11] = system: HL60; assay: in vitro; type: cell-based, human
Description: as §3, §4

[12] = system: K562; assay: in vitro; type: cell-based, human
Description: as §3, §4

SMILES: CCCCCCC(O)CCCCCC/C=C/CC1OC(=O)C(N)(CO)C1O (stereo not drawn) [Example 8]
- Absorbancy ([1]; 1 μg/ml): 0.817
- Absorbancy ([1]; 10 μg/ml): 0.738
- Absorbancy ([1]; 100 μg/ml): 0.023
- cytotoxicity at 48 h ([2]; 1 μg/ml): 0%
- cytotoxicity at 48 h ([2]; 10 μg/ml): 0%
- cytotoxicity at 48 h ([2]; 100 μg/ml): 96%
- 3H-thymidine uptake ([3]; 0.001 μg/ml): 22815 cpm
- 3H-thymidine uptake ([3]; 0.01 μg/ml): 3081 cpm
- 3H-thymidine uptake ([3]; 0.1 μg/ml): 1586 cpm
- inhibition at 0.001 µg/mL ([3]; Mus musculus, Lymphocyte, 0.001 μg/ml, read-out: Suppression): 21.1%
- inhibition at 0.01 µg/mL ([3]; Mus musculus, Lymphocyte, 0.01 μg/ml, read-out: Suppression): 100%
- inhibition at 0.1 µg/mL ([3]; Mus musculus, Lymphocyte, 0.1 μg/ml, read-out: Suppression): 100%
- Absorbancy ([4]; 0.1 μg/ml): 0.142
- Absorbancy ([4]; 1.0 μg/ml): 0.137
- Absorbancy ([4]; 10.0 μg/ml): 0.133
- cytotoxicity at 72 h ([5]; 0.1 μg/ml): 2.1%
- cytotoxicity at 72 h ([5]; 1.0 μg/ml): 5.5%
- cytotoxicity at 72 h ([5]; 10.0 μg/ml): 8.3%
- Absorbancy ([6]; 0.1 μg/ml): 0.452
- Absorbancy ([6]; 1.0 μg/ml): 0.425
- Absorbancy ([6]; 10.0 μg/ml): 0.326
- Absorbancy ([7]; 0.1 μg/ml): 0.741
- Absorbancy ([7]; 1.0 μg/ml): 0.749
- Absorbancy ([7]; 10.0 μg/ml): 0.706
- Absorbancy ([8]; 0.1 μg/ml): 0.590
- Absorbancy ([8]; 1.0 μg/ml): 0.580
- Absorbancy ([8]; 10.0 μg/ml): 0.513
- Absorbancy ([9]; 0.1 μg/ml): 0.720
- Absorbancy ([9]; 1.0 μg/ml): 0.694
- Absorbancy ([9]; 10.0 μg/ml): 0.665
- cytotoxicity at 72 h ([10]; ccrf-cem cells, 0.1 μg/ml): 0%
- cytotoxicity at 72 h ([10]; ccrf-cem cells, 1.0 μg/ml): 0%
- cytotoxicity at 72 h ([10]; ccrf-cem cells, 10.0 μg/ml): 3.9%
- cytotoxicity at 72 h ([10]; hl60 cells, 0.1 μg/ml): 16.9%
- cytotoxicity at 72 h ([10]; hl60 cells, 1.0 μg/ml): 14.8%
- cytotoxicity at 72 h ([10]; hl60 cells, 10.0 μg/ml): 19.9%
- cytotoxicity at 72 h ([10]; k562 cells, 0.1 μg/ml): 15.1%
- cytotoxicity at 72 h ([10]; k562 cells, 1.0 μg/ml): 16.6%
- cytotoxicity at 72 h ([10]; k562 cells, 10.0 μg/ml): 22.6%
- cytotoxicity at 72 h ([10]; kb cells, 0.1 μg/ml): 0%
- cytotoxicity at 72 h ([10]; kb cells, 1.0 μg/ml): 0%
- cytotoxicity at 72 h ([10]; kb cells, 10.0 μg/ml): 3.3%
- cytotoxicity at 72 h ([10]; pc-14 cells, 0.1 μg/ml): 4.6%
- cytotoxicity at 72 h ([10]; pc-14 cells, 1.0 μg/ml): 10.3%
- cytotoxicity at 72 h ([10]; pc-14 cells, 10.0 μg/ml): 31.2%
- cytotoxicity at 72 h ([10]; u937 cells, 0.1 μg/ml): 0%
- cytotoxicity at 72 h ([10]; u937 cells, 1.0 μg/ml): 0.5%
- cytotoxicity at 72 h ([10]; u937 cells, 10.0 μg/ml): 12%
- Absorbancy ([11]; 0.1 μg/ml): 0.434
- Absorbancy ([11]; 1.0 μg/ml): 0.445
- Absorbancy ([11]; 10.0 μg/ml): 0.418
- Absorbancy ([12]; 0.1 μg/ml): 0.327
- Absorbancy ([12]; 1.0 μg/ml): 0.321
- Absorbancy ([12]; 10.0 μg/ml): 0.298
